“Also recorded” adds a separate entry of the source.
Columns and labels:
[1] = test system: OVX rats having clinical signs of osteoporosis; conditions: sustained delivery; cited from earlier work
OVX mice = conditions: cited from earlier work
[2] = test system: breast cancer-burdened mice; conditions: cited from earlier work
OVX rats with anxiety = test: Learned helplessness test (day-2 active avoidance test, shuttle box), OVX rats with anxiety; format: in vivo, female Wistar rats; conditions: 23 days; for Avoidance response (number) / Failure response (number) / Escape response (number): 16 trials, mean±SEM
Experimental: (§1) Three daily dosages of diosgenin, i.e., 10, 50, or 100 mg/kg, were administered to the experimental animals in the following experiments. A proper amount of diosgenin (Sigma, USA, required for formulating a respective one of the three daily dosages) was mixed with 1 g of toast or raw dough (prepared by mixing flour and water in a ratio of 2:1 (wt/wt)), thereby forming a diosgenin-containing pellet. The experimental animals were orally administered with the diosgenin-containing pellets, starting about 4 weeks after ovariectomy.
(§2) A shuttle box used in Example 1 (AccuScan, USA) is composed of two equal compartments. Each of the compartments has a grid floor made of stainless steel bars. The compartments are separated by a wall having a central door. Specifically, the central door can be closed to separate the two compartments, or can be opened to allow the experimental animals to move freely between the two compartments therethrough. A conditioned stimulus (CS, a stimulus consisting of a tone (75 db) and a light (250 lux) and lasting 3 seconds) and an unconditioned stimulus (UCS, an electric foot shock (0.5 mA) lasting a maximum of 10 seconds) were administered to the experimental animals from the shuttle box under control of a computer. The shuttle box was thoroughly cleaned using 20% ethanol and was subsequently thoroughly dried before each of the experimental animals was tested.
(§3) The OVX rats with and without anxiety, which were identified in the preceding section A, were respectively randomly subdivided into 4 groups including a control group and three experimental groups (respectively designated as diosgenin groups 1-3). The diosgenin-containing pellets (made using diosgenin and toast), which were prepared according to the method as described in the section entitled “2. Diosgenin-containing pellets” of the Experimental Materials, respectively comprised the three daily dosages of diosgenin (i.e., 10, 50, and 100 mg/kg), and were respectively administered to the OVX rats in diosgenin groups 1-3 daily. In other words, the daily dosage of diosgenin administered to the OVX rats in diosgenin group 1 was 10 mg/kg, the daily dosage of diosgenin administered to the OVX rats in diosgenin group 2 was 50 mg/kg, and the daily dosage of diosgenin administered to the OVX rats in diosgenin group 3 was 100 mg/kg. The toast without diosgenin was administered daily to the OVX rats in the control group. After 23 days of administration, the OVX rats in each group were subjected to the following learned helplessness test so as to investigate the effect of diosgenin on the learning ability of the OVX rats with and without anxiety under stress.
(§4) The learned helplessness test in this example was conducted substantially according to the methods as described in W. F. Wang et al. (2007), Chin. J. Physiol., 50:63-68 and Y. T. Lee et al. (2008), Neuroreport, 19:1243-1247, except for minor modifications. The learned helplessness test in this example is generally described as follows.
(§5) The respective OVX rat was placed in one of the two compartments of the shuttle box, and was allowed to explore the two compartments through the central door, which was opened, for 1 minute. Afterward, the central door was closed. The respective OVX rat was subjected to 40 trials of inescapable CS-UCS pairing. Specifically, each of the 40 trials of inescapable CS-UCS pairing consisted of a CS and a subsequent UCS, and a mean interval between the two successive trials of inescapable CS-UCS pairing was 60 seconds (the interval between the two successive trials of inescapable CS-UCS pairing ranged from 50 to 70 seconds).
(§6) The respective OVX rat was placed in one of the two compartments of the shuttle box, and was allowed to explore the two compartments through the central door, which was opened, for 1 minute. Subsequently, the respective OVX rat was subjected to 16 trials of escapable CS-UCS pairing. […]

OVX rats without anxiety = test: Learned helplessness test (day-2 active avoidance test, shuttle box), OVX rats without anxiety; format: in vivo, female Wistar rats; conditions: for Avoidance response (number) / Escape response (number) / Failure response (number): 23 days, 16 trials, mean±SEM
Experimental: as §1, §2, §3, §4, §5, §6

OVX rats = test: Object recognition test in open box; format: in vivo, female Wistar rats
Experimental: Three daily dosages of diosgenin, i.e., 10, 50, or 100 mg/kg, were administered to the experimental animals in the following experiments. A proper amount of diosgenin (Sigma, USA, required for formulating a respective one of the three daily dosages) was mixed with 1 g of toast or raw dough (prepared by mixing flour and water in a ratio of 2:1 (wt/wt)), thereby forming a diosgenin-containing pellet. The experimental animals were orally administered with the diosgenin-containing pellets, starting about 4 weeks after ovariectomy. The open box is made of black polyvinyl plastics. Three objects, which are respectively designated as A1, A2, and A3, are identical in terms of size, color, shape, and material, and have no specific scents. Each of the objects A1, A2, A3 was placed on the bottom of the open box and was spaced apart from a respective one of three corners C1, C2, C3 of the open box by 21 cm (see FIG. 2(A)). The object A3 was later replaced with an object B different from the object A3 in terms of size, color, shape, and material, and having no specific scents (see FIG. 2(B)). Prior to an experiment, each of the objects A1, A2, A3, B was unfamiliar to the experimental animals. The open box and the objects A1, A2, A3, B were thoroughly cleaned using 20% ethanol, and were subsequently thoroughly dried before each of the experimental animals was tested. After the female Wistar rats were raised in the animal room for 4 weeks, the same were subjected to ovariectomy according to the method as described in the section, entitled “1. Ovariectomy”, of the General Experimental Procedure. On the 29th day after the surgery, the OVX rats were randomly divided into four groups including a control group (n=20) and three experimental groups (respectively designated as diosgenin group 1 (n=20), diosgenin group 2 (n=12), and diosgenin group 3 (n=19)). The diosgenin-containing pellets (made using diosgenin and raw dough), which were prepared according to the method as described in the section entitled “2. […]

[3] = diosgenin group 1, 10 mg/kg daily oral, n=12
[4] = diosgenin group 2, 50 mg/kg daily oral, n=11
[5] = diosgenin group 3, 100 mg/kg daily oral, n=11
[6] = diosgenin group 1, 10 mg/kg daily oral, n=7
[7] = diosgenin group 2, 50 mg/kg daily oral, n=6
[8] = diosgenin group 3, 100 mg/kg daily oral, n=6

C[C@]12CC[C@H](O)CC1=CC[C@@H]1[C@@H]2CC[C@]2(C)C(=O)CC[C@@H]12 [DHEA, dehydroepiandrosterone]
Bone loss after ovariectomy [1]: significantly reduced | Side effects on other body organs [1]: without inducing side effects on other body organs

C[C@@H]1CC[C@@]2(OC1)O[C@H]1C[C@H]3[C@@H]4CC=C5C[C@@H](O)CC[C@]5(C)[C@H]4CC[C@]3(C)[C@H]1[C@@H]2C [diosgenin]
Bone loss after ovariectomy [1]: significantly reduced | Side effects on other body organs [1]: without inducing side effects on other body organs | Epidermal thickness of OVX mice (OVX mice; animal model of menopause): capable of improving epidermal thickness | Keratinocyte proliferation in aged skin (OVX mice; animal model of menopause): able to restore keratinocyte proliferation in aged skin | Degree of fat accumulation (OVX mice): without altering the degree of fat accumulation | Tumor growth [2]: does not accelerate the tumor growth | Avoidance response (number) (OVX rats with anxiety; [3]): 2.5 ± 0.9 number | Failure response (number) (OVX rats with anxiety; [3]): 4.2 ± 1.3 number | Escape response (number) (OVX rats with anxiety; diosgenin group 1, 10 mg/kg daily oral, n=12, p<0.05 vs control): 9.3 ± 1.3 number | Avoidance response (number) (OVX rats with anxiety; [4]): 1.3 ± 0.5 number | Escape response (number) (OVX rats with anxiety; [4]): 10.4 ± 1.4 number | Failure response (number) (OVX rats with anxiety; [4]): 4.4 ± 1.4 number | Avoidance response (number) (OVX rats with anxiety; [5]): 1.4 ± 0.4 number | Escape response (number) (OVX rats with anxiety; [5]): 13.2 ± 0.6 number | Failure response (number) (OVX rats with anxiety; [5]): 1.4 ± 0.5 number | Learning ability of the OVX rats with anxiety (result in words) (OVX rats with anxiety; oral diosgenin-containing pellets): capable of significantly improving the learning ability of the OVX rats with anxiety | Avoidance response (number) (OVX rats without anxiety; [6]): 1.3 ± 0.6 number | Escape response (number) (OVX rats without anxiety; [6]): 11.7 ± 1.4 number | Failure response (number) (OVX rats without anxiety; [6]): 3.0 ± 1.6 number | Avoidance response (number) (OVX rats without anxiety; [7]): 1.2 ± 0.4 number | Escape response (number) (OVX rats without anxiety; [7]): 13.8 ± 0.5 number | Failure response (number) (OVX rats without anxiety; [7]): 0.7 ± 0.3 number | Avoidance response (number) (OVX rats without anxiety; [8]): 2.5 ± 0.8 number | Escape response (number) (OVX rats without anxiety; [8]): 12.5 ± 1.1 number | Failure response (number) (OVX rats without anxiety; [8]): 0.8 ± 0.7 number | Number of avoidance response and number of escape response versus control group (result in words) (OVX rats without anxiety; diosgenin groups 1-3 (10, 50, 100 mg/kg daily oral)): not obviously different from those regarding the OVX rats in the control group | Exploration time spent on object B in the third trial, comparison among groups (result in words) (OVX rats; diosgenin group 2, 50 mg/kg daily oral, 26 days, FIG. 3): the longest | Exploration time spent on object B in the third trial versus object A3 in the second trial (result in words) (OVX rats; each of diosgenin groups 1-3 (10, 50, 100 mg/kg daily oral, 26 days), FIG. 3): longer than exploration time spent on object A3 in the second trial | Ability to memorize a familiar object and to recognize a difference between familiar and novel object (result in words) (OVX rats; oral diosgenin-containing pellets, 26 days): able to improve the ability to memorize a familiar object and the ability to recognize a difference between the familiar object and a novel object; also recorded: able to improve the ability to memorize a familiar object, and the ability to recognize a difference between the familiar object and a novel object

estrogen
Bone loss after ovariectomy [1]: significantly reduced | Side effects on other body organs [1]: without inducing side effects on other body organs
